Read-outs that look alike come from different tables or passages of the source.
Legend:
[1] = molecular target: T1, human HDAC1 complex (Homo sapiens, UniProt Q13547); test: HDAC1-Flag in vitro deacetylation assay; format: biochemical
T1 construct: Flag; made in house
Experimental: Novel compounds were tested for their ability to inhibit histone deacetylase, subtype 1 (HDAC1) using an in vitro deacetylation assay. The enzyme source for this assay was an epitope-tagged human HDAC1 complex immuno-purified from stably expressing mammalian cells. The substrate consisted of a commercial product containing an acetylated lysine side chain (BIOMOL Research Laboratories, Inc., Plymouth Meeting, Pa.). Upon deacetylation of the substrate by incubation with the purified HDAC1 complex, a fluorophore is produced that is directly proportional to the level of deacetylation. Using a substrate concentration at the Km for the enzyme preparation, the deacetylation assay was performed in the presence of increasing concentrations of novel compounds to semi-quantitatively determine the concentration of compound required for 50% inhibition (IC50) of the deacetylation reaction.

[2] = system: HCT-116 cells; test: ATP (Vialight) cell proliferation assay, HCT-116; format: cell-based; conditions: Homo sapiens
Experimental: (§1) The novel compounds of the present invention were tested for their ability to inhibit proliferation of the human cervical cancer (HeLa) and colon carcinoma (HCT116) cells.
(§2) In this assay, also referred to as the Vialight Assay, cellular ATP levels are measured as a means of quantifying cellular proliferation. This assay makes use of a bioluminescent method from Cambrex (ViaLight PLUS, cat. #LT07-121). In the presence of ATP, luciferase converts luciferin to oxyluciferin and light. The amount of light produced (emission at 565 nm) is measured and correlates with a relative amount of proliferation. Human cervical cancer (HeLa) or colon carcinoma (HCT116) cells were incubated with vehicle or increasing concentrations of compound for 48, 72 or 96 hours. Cell proliferation was quantified by adding the cell lysis reagent (provided in the Vialight assay kit) directly to culture wells, followed by addition of the ATP-monitoring reagent (containing luciferase/luciferin). The amount of light produced is then measured (emission at 565 nm). The quantity of light produced, as measured by […], is directly proportional to the number of living cells in culture.

[3] = molecular target: Cyp3A4 (Homo sapiens, UniProt P08684); test: Cyp inhibition, Cyp3A4; format: in vitro ADME; conditions: read-out: Percent Cyp inhibition, Cyp3A4
[4] = molecular target: Cyp 2C9 (Homo sapiens, UniProt P11712); test: Cyp inhibition, Cyp2C9; format: in vitro ADME; conditions: read-out: Percent Cyp inhibition, 2C9
[5] = molecular target: Cyp 2D6 (Homo sapiens, UniProt P10635); test: Cyp inhibition, Cyp2D6; format: in vitro ADME; conditions: read-out: Percent Cyp inhibition, 2D6
[6] = molecular target: MK-499 binding (Homo sapiens, UniProt Q12809); test: MK-499 binding; conditions: read-out: inflection point for MK-499 binding
[7] = system: human cervical cancer (HeLa) or colon carcinoma (HCT116) cells; test: Prol-72 hr, ATP (Vialight) proliferation assay, cell line not given; format: cell-based; conditions: Table 2, IP = inflection point, cell line not stated
Experimental: as §1, §2

[8] = Table 2, IP = inflection point, read-out: HDAC1 IP*
[9] = Table 3, IP = inflection point, read-out: HDAC 1 IP*

Sequence of Cyp 2C9 (P11712 whole entry): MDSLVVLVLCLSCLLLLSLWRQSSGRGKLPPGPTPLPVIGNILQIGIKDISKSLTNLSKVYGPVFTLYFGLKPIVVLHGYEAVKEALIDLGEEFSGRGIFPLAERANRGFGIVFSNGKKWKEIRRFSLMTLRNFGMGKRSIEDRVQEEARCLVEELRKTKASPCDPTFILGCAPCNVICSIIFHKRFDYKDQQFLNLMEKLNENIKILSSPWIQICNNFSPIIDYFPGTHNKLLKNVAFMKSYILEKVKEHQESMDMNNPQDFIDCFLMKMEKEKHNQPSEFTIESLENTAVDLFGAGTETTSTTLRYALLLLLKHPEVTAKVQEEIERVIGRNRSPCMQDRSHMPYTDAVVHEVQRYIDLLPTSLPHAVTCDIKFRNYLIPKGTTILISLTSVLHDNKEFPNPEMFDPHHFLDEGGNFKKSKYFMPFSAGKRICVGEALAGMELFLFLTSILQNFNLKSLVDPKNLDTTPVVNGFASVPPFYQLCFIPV
T1 sequence (Q13547 whole entry, one chain of several): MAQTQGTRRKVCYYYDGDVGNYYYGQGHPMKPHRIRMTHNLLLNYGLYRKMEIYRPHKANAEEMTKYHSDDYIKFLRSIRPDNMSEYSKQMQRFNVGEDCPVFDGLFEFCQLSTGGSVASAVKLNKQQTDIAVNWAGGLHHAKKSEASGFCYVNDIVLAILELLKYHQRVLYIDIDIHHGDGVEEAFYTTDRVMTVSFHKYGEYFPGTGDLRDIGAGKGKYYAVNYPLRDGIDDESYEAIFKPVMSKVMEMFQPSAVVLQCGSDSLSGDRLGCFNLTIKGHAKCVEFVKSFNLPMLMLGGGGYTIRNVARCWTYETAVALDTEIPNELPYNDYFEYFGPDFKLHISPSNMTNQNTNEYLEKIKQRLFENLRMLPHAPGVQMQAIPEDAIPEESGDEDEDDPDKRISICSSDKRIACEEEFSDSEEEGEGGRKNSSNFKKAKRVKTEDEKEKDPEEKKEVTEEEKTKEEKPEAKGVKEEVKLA
Sequence of Cyp3A4 (P08684 whole entry, species assumed): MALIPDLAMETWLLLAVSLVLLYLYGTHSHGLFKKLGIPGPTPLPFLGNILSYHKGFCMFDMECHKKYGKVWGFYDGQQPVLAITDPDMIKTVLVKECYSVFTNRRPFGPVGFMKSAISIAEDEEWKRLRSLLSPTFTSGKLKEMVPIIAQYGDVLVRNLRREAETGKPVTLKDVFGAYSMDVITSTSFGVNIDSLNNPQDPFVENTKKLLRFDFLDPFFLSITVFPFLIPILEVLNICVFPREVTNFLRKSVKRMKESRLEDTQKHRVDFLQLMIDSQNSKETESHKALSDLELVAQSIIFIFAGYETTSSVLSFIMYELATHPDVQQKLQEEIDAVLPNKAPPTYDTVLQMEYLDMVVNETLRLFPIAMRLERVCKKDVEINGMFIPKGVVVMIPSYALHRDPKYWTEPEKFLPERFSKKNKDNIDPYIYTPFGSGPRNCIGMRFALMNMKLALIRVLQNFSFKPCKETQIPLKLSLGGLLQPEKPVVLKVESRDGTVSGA
Sequence of MK-499 binding (Q12809 whole entry): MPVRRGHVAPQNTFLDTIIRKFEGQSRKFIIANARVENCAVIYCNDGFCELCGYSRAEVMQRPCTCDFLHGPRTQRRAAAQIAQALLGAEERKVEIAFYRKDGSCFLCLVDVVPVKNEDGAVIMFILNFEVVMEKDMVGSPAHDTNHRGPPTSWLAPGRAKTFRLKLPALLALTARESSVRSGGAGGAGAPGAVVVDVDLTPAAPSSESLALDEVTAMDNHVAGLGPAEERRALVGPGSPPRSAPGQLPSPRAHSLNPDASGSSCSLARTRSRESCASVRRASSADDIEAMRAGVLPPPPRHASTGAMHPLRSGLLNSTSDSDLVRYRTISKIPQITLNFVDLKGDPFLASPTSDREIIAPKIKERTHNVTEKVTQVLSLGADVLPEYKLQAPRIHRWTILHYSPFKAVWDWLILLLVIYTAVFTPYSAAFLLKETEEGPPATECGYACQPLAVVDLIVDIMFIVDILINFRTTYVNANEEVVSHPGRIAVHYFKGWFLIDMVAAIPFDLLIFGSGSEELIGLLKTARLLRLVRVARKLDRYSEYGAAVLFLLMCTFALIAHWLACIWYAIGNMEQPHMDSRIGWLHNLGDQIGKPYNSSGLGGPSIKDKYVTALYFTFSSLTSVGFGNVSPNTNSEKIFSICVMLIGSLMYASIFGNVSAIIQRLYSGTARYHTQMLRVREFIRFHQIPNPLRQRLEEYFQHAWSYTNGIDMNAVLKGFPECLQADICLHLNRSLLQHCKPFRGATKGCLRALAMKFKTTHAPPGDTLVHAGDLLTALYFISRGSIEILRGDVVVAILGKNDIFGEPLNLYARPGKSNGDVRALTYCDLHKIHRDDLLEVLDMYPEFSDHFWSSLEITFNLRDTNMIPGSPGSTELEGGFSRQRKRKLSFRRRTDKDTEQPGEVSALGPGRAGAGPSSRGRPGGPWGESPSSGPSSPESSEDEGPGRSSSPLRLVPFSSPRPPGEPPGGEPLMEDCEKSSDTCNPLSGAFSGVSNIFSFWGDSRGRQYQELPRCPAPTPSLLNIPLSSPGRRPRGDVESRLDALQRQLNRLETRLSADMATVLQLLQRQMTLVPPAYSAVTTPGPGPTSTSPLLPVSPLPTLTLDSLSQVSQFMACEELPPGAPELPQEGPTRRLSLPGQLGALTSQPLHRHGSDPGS
Sequence of Cyp 2D6 (P10635 whole entry): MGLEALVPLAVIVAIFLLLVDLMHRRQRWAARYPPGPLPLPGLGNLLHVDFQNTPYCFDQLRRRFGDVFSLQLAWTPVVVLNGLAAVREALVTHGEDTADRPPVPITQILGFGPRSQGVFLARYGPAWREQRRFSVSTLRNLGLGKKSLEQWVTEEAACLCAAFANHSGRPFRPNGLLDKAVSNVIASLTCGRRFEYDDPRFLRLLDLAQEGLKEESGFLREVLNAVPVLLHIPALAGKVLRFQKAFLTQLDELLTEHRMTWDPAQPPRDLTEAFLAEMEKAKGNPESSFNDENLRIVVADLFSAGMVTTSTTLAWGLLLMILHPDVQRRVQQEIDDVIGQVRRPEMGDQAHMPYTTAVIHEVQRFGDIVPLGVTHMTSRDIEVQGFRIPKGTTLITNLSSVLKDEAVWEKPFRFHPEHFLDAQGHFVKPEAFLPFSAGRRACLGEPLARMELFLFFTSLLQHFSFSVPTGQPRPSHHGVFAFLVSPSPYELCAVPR

Row | Compound | IC50 ([1]; read-out: in vitro HDAC1 IC50) [µM] | IC50 [2] [µM] | inhibition at 10 µM [3] [%] | inhibition at 10 µM [4] [%] | inhibition at 10 µM [5] [%] | IC50 [6] [µM] | IC50 [1, 8] [µM] | IC50 [7] [µM] | IC50 [1, 9] [µM]
1 | Nc1ccc(-c2ccccc2)nc1NC(=O)c1ccc(CNC(=O)OCc2ccccc2)cc1 [Benzyl(4-{[(3-amino-6-phenylpyridin-2-yl)amino]carbonyl}benzyl)carbamate] | 0.032 | 0.59 | 7 | 25 | 24 | 12.2 | – | – | –
2 | Nc1ccc(-c2ccccc2)nc1NC(=O)c1ccccc1 [N-(3-amino-6-phenylpyridin-2-yl)benzamide] | – | – | – | – | – | – | 1.16 | – | –
3 | Nc1ccc(-c2ccccc2)nc1NC(=O)c1ccc(CNC(=O)OCc2ccccn2)cc1 [Pyridin-2-ylmethyl(4-{[(3-amino-6-phenylpyridin-2-yl)amino]carbonyl}benzyl)carbamate] | 0.035 | 0.56 | 27 | 47 | 24 | 2540 | – | – | –
4 | Nc1ccc(-c2ccccc2)nc1NC(=O)c1ccc(CNC(=O)OCc2cccnc2)cc1 [Pyridin-3-ylmethyl[(4-{[(3-amino-6-phenylpyridin-2-yl)amino]carbonyl}phenyl)methyl]carbamate] | 0.084 | 0.58 | 46 | 54 | 55 | > 30 | – | – | –
5 | CCOC(=O)NCc1ccc(C(=O)Nc2nc(-c3ccccc3)ccc2N)cc1 [ethyl (4-{[(3-amino-6-phenylpyridin-2-yl)amino]carbonyl}benzyl)carbamate] | – | – | – | – | – | – | – | – | 0.011
6 | Nc1ccc(-c2ccccc2)nc1NC(=O)c1ccc(CNC(=O)Oc2ccccc2)cc1 [phenyl (4-{[(3-amino-6-phenylpyridin-2-yl)amino]carbonyl}benzyl)carbamate] | – | – | – | – | – | – | – | – | 0.012
7 | Nc1ccc(-c2cccs2)nc1NC(=O)c1ccc(CNC(=O)OCc2cccnc2)cc1 [pyridin-3-ylmethyl {[4-({[3-amino-6-(2-thienyl)pyridin-2-yl]amino}carbonyl)phenyl]methyl}carbamate] | 0.056 | 0.56 | – | – | – | – | – | – | –

Further lines, with some results ahead:

Row | IC50 ([1]; read-out: in vitro HDAC1 IC50) [µM] | IC50 [2] [µM] | inhibition at 10 µM [3] [%] | inhibition at 10 µM [4] [%] | inhibition at 10 µM [5] [%] | IC50 [6] [µM] | IC50 [1, 8] [µM] | IC50 [7] [µM] | Compound | IC50 [1, 9] [µM]
8 | 0.086 | 2.05 | – | – | – | – | – | – | CC(=O)Nc1ccc(C(=O)Nc2nc(-c3ccccc3)ccc2N)cc1 [4-(Acetylamino)-N-(3-amino-6-phenylpyridin-2-yl)benzamide] | –
9 | 0.037 | 1.2 | 29 | 49 | 27 | > 10 | – | – | COC(=O)NCc1ccc(C(=O)Nc2nc(-c3ccccc3)ccc2N)cc1 [Methyl(4-{[(3-amino-6-phenylpyridin-2-yl)amino]carbonyl}benzyl)carbamate] | –
10 | – | – | – | – | – | – | 0.235 | 20 | CC(C)(C)c1ccc(C(=O)Nc2nc(-c3ccccc3)ccc2N)cc1 [N-(3-amino-6-phenyl-2-pyridinyl)-4-(1,1-dimethylethyl) benzamide] | –
11 | – | – | – | – | – | – | 0.195 | 20 | COC(=O)c1ccc(C(=O)Nc2nc(-c3ccccc3)ccc2N)cc1 [benzoic acid, methyl 4-[[(3-amino-6-phenyl-2-pyridinyl)amino]carbonyl]benzoate] | –
